ChEMBL document CHEMBL1914318, “Anti-hepatocellular carcinoma activity using human HepG2 cells and hepatotoxicity of 6-substituted methyl 3-aminothieno[3,2-b]pyridine-2-carboxylate derivatives: in vitro evaluation, cell cycle analysis and QSAR studies” (Eur J Med Chem, 2011)
The source made the active and inactive calls. The calls are words filed in the database; no cut-off is given here.

Key:
[1] = Growth inhibition of porcine primary hepatocytes after 72 hrs by SRB assay; assay type: cell-based, Sus scrofa, Hepatocyte; conditions: pig
HepG2 [2] = assay: Growth inhibition of human HepG2 cells after 72 hrs by SRB assay; assay type: functional; conditions: HepG2, 72 h
HepG2 [3] = assay: Induction of cell cycle arrest in human HepG2 cells assessed as increase in DNA content at G2/M phase at 4.1 uM after 72 hrs by propidium iodide staining-based flow cytometric analysis; assay type: functional
HepG2 [4] = assay: Induction of cell cycle arrest in human HepG2 cells assessed as decrease in DNA content at S phase at 4.1 uM after 72 hrs by propidium iodide staining-based flow cytometric analysis; assay type: functional
HepG2 [5] = assay: Induction of cell cycle arrest in human HepG2 cells assessed as increase in sub-G1 peak at 4.1 uM after 72 hrs by propidium iodide staining-based flow cytometric analysis; assay type: functional

| SMILES | GI50 (HepG2 [2]) [µM] | GI50 at 72 h [1] [µM] | Activity (HepG2 [3]) | Activity (HepG2 [4]) | Activity (HepG2 [5]) |
| --- | --- | --- | --- | --- | --- |
| COC(=O)c1sc2cc(-c3cnn(C)c3)cnc2c1N | > 125 | > 125 | – | – | – |
| COC(=O)c1sc2cc(C#Cc3ccccc3OC)cnc2c1N | > 125 | 121 | – | – | – |
| COC(=O)c1sc2cc(C#Cc3ccccc3)cnc2c1N | > 125 | 95.7 | – | – | – |
| COC(=O)c1sc2cc(-c3cncc4ccccc34)cnc2c1N | > 125 | 25.4 | – | – | – |
| COC(=O)c1sc2cc(-c3cnc4ccccc4c3)cnc2c1N | > 125 | 32.5 | – | – | – |
| COC(=O)c1sc2cc(-c3ccc4ccccc4c3)cnc2c1N | > 125 | 102 | – | – | – |
| COC(=O)c1sc2cc(-c3ccoc3)cnc2c1N | > 125 | > 125 | – | – | – |
| COC(=O)c1sc2cc(-c3ccc(C(F)(F)F)cc3)cnc2c1N | > 125 | > 125 | – | – | – |
| COC(=O)c1sc2cc(-c3cccnc3)cnc2c1N | > 125 | > 125 | – | – | – |
| COC(=O)c1sc2cc(C#Cc3ccc(F)cc3)cnc2c1N | > 125 | > 125 | – | – | – |
| COC(=O)c1sc2cc(-c3ccc(OC)nc3)cnc2c1N | > 125 | > 125 | – | – | – |
| COC(=O)c1sc2cc(C#Cc3ccccc3N)cnc2c1N | > 125 | > 125 | – | – | – |
| COC(=O)c1sc2cc(C#Cc3cccc(OC)c3)cnc2c1N | > 125 | > 125 | – | – | – |
| COC(=O)c1sc2cc(-c3ccc(C(C)=O)cc3)cnc2c1N | > 125 | > 125 | – | – | – |
| COC(=O)c1sc2cc(-c3ccc(OC)cc3)cnc2c1N | > 125 | > 125 | – | – | – |
| Cc1c2ccncc2c(C)c2c1[nH]c1ccccc12 [ELLIPTECINE] | 2.9 | 3.3 | – | – | – |
| COC(=O)c1sc2cc(-c3ccc(C#N)cc3)cnc2c1N | > 125 | 96.7 | – | – | – |
| COC(=O)c1sc2cc(-c3ccsc3)cnc2c1N | > 125 | 25.2 | – | – | – |
| COC(=O)c1sc2cc(C#Cc3ccc(OC)cc3)cnc2c1N | > 125 | 76.5 | – | – | – |
| COC(=O)c1sc2cc(C#Cc3cccnc3)cnc2c1N | > 125 | > 125 | – | – | – |
| COC(=O)c1sc2cc(C#Cc3ccccc3F)cnc2c1N | > 125 | > 125 | – | – | – |
| COC(=O)c1sc2cc(-c3ccc4ncccc4c3)cnc2c1N | > 125 | 14.1 | – | – | – |
| COC(=O)c1sc2cc(-c3ccc(F)nc3)cnc2c1N | > 125 | 47 | – | – | – |

Second part, led by results:

| GI50 (HepG2 [2]) [µM] | SMILES | GI50 at 72 h [1] [µM] | Activity (HepG2 [3]) | Activity (HepG2 [4]) | Activity (HepG2 [5]) |
| --- | --- | --- | --- | --- | --- |
| 30 | COC(=O)c1sc2cc(C#Cc3ccsc3)cnc2c1N | 30.7 | – | – | – |
| 25.9 | COC(=O)c1sc2cc(C#Cc3ccc(N)cc3)cnc2c1N | > 125 | – | – | – |
| 70.6 | COC(=O)c1sc2cc(-c3ccc(-c4cccs4)s3)cnc2c1N | 106 | – | – | – |
| 125 | COC(=O)c1sc2cc(-c3cc(OC)cc(OC)c3)cnc2c1N | 25 | – | – | – |
| 67.6 | COC(=O)c1sc2cc(C#Cc3ccc(N(C)C)cc3)cnc2c1N | > 125 | – | – | – |
| 21.7 | COC(=O)c1sc2cc(-c3ccccc3N)cnc2c1N | > 125 | – | – | – |
| 1.2 | COC(=O)c1sc2cc(C#Cc3cccc(N)c3)cnc2c1N | > 125 | Active | Active | Active |
| 75.7 | COC(=O)c1sc2cc(C#Cc3ccccn3)cnc2c1N | 56.9 | – | – | – |
| 117 | COC(=O)c1sc2cc(-c3ccc4c(ccn4C)c3)cnc2c1N | 106 | – | – | – |
| 23.8 | COC(=O)c1sc2cc(-c3cnc(OC)nc3OC)cnc2c1N | 4.4 | – | – | – |
